# Measured values reported in PMC9354243, “The Role of Tryptophan in π Interactions in Proteins: An Experimental Approach” (Journal of the American Chemical Society, 2022).
# Like-named read-outs stand apart in the source and are kept apart here.
# Key:
# LmrR labeled with 5MeW = LmrR labeled with 5MeW (Lactococcus lactis subsp. cremoris, UniProt A2RI36); test: SPR binding of drugs to immobilized LmrR labeled with 5MeW; details: for Kd: Binding affinity, SPR, mean ± SD n = 3
# Excerpt: (§1) LmrR binds different drugs including Dau and RBF.[19],[20] To investigate the importance of π–π interactions for drug binding, the electron density in the π electron cloud of W96 was modulated by progressive fluorination of the W96 indole side chain. The binding affinities of LmrR for Dau and RBF decreased upon increasing degrees of fluorination of W96 (Table 2, Figure S3). […] Dau behaved less extreme, with the kd […] 6-fold (Table 2).
# (§2) The thermodynamics of the LmrR–Dau interaction was recently reported to be mostly entropy driven.[21] To investigate this point in more detail the temperature dependence of the LmrR–Dau interaction was studied by surface plasmon resonance (SPR) experiments at 10 and 25 °C. […] The average ΔΔG from 6 LmrR variants is around 0.1 kJ/mol. These values imply that the temperature effects on the ΔGs are negligible, which would be in line with a low contribution of entropic factors to the Dau–LmrR interaction.
# (§3) The SPR assays can also inform on the kinetics of the LmrR-drug interaction, but for the assays at 25 °C, the kon and koff rates could not be analyzed properly, because the rates were too fast at those conditions. The koff rates increase when the electron density of the π-electron cloud in W96 decreases, in support of a sizable contribution of the π–π stacking interaction to the drug binding affinity. […]
# (§4) MALDI-TOF. A purified LmrR solution (~6 mg/ml) was diluted to ~0.5 mg/ml with 100 mM NH4HCO3, and incubated with 5 µg/ml of trypsin during 2 h at 37 °C. 1 µl of digested LmrR was spotted, dried and quickly washed with 1 µl MilliQ water twice. Subsequently, 1 µl of matrix solution (10 mg/ml α- cyano-4-hydroxycinnamate (LaserBio Labs) in 50 % acetonitrile/0.1 % (v/v) trifluoroacetic acid) was spotted on top of the washed sample. Spots were measured using a Voyager DE-PRO MALDI-TOF (time of flight) instrument (Applied Biosystems). The incorporation efficiency of Trp analog was calculated after measuring the peak areas of the peptide conta ining either Trp or Trp analog.
# (§5) Binding assays - surface plasmon resonance (SPR). LmrR and mutants were immobilized on a CM5 sensor chip and binding of drugs was monitored using a BIACORE3000 system. The binding responses of Dau and RBF to LmrR were measured in triplicate at both 25 °C and 10 °C, in HBS-EP running buffer (10 mM HEPES, pH 7.4, 150 mM NaCl, 50 µM EDTA, and 0.005% surfactant P-20). The binding responses were corrected by subtracting the response measured in the control lane, to which a […]
# (§6) This protein, 4-oxalocrotonate tautomerase mutant Ala33Asp15 was a gift of J.-Y. van der Meer. Steady state responses after injection of serial dilutions of Dau and RBF were used for the determination of the dissociation constant (K d) values, using the BIAevaluation v.4.1 (GE Healthcare ) and GraphPad Prism v5.00 software . The One site-Total equation from GraphPad Prism software was used for the calculation of Kd as follows:
# (§7) Y=Bmax*X/(Kd+X) + NS*X + Background . Equilibrium response Y is obtained at ligand concentration X.
# (§8) Bmax represents the maximum specific binding response to the same sensorchip. NS is the slope of nonspecific binding in Y units divided by X units. […]
# (§9) without addition of ligand. Binding free energies, ΔGs, were derived from the dissociation constant K d according to […].
# (§10) Where possible, rate constants were determined using the BIAevaluation v.4.1 (GE Healthcare ) software. k off values were determined by fitting a 1:1 (Langmuir ) binding model . Each koff value is the average of 3 determinations.
# W-LmrR = W-LmrR (Lactococcus lactis subsp. cremoris, UniProt A2RI36); test: SPR binding of drugs to immobilized wild type LmrR (W-LmrR); details: for Contribution of the π–π interactions to the total binding energy: extrapolation with 4,5,6,7tetraFW as baseline; for Kd: W (wild type) LmrR, SPR, mean ± SD n = 3
# Excerpt: as §1, §2, §3, §4, §5, §6, §7, §8, §9, §10
# 5FW-LmrR = 5FW-LmrR (Lactococcus lactis subsp. cremoris, UniProt A2RI36); test: SPR binding of drugs to immobilized 5FW-LmrR; details: for Kd: Binding affinity, SPR, mean ± SD n = 3
# Excerpt: as §1, §2, §3, §4, §5, §6, §7, §8, §9, §10
# 5,6diFW-LmrR = 5,6diFW-LmrR (Lactococcus lactis subsp. cremoris, UniProt A2RI36); test: SPR binding of drugs to immobilized 5,6diFW-LmrR; details: for Kd: Binding affinity, Kd, 5,6diFW LmrR, SPR, mean ± SD n = 3
# Excerpt: as §1, §2, §3, §4, §5, §6, §7, §8, §9, §10
# 5,6,7triFW-LmrR = 5,6,7triFW-LmrR (Lactococcus lactis subsp. cremoris, UniProt A2RI36); test: SPR binding of drugs to immobilized 5,6,7triFW-LmrR; details: for Kd: Binding affinity, Kd, 5,6,7triFW LmrR, SPR, mean ± SD n = 3
# Excerpt: as §1, §2, §3, §4, §5, §6, §7, §8, §9, §10
# 4,5,6,7tetraFW-LmrR = 4,5,6,7tetraFW-LmrR (Lactococcus lactis subsp. cremoris, UniProt A2RI36); test: biochemical; assay type: binding; details: for Fold decrease of LmrR binding affinity, W-LmrR to 4,5,6,7tetraFW-LmrR: equals enhancement of affinity by π–π stacking; for Kd: Binding affinity, Kd, 4,5,6,7tetraFW LmrR, SPR, mean ± SD n = 3
# Excerpt: LmrR binds different drugs including Dau and RBF.[19],[20] To investigate the importance of π–π interactions for drug binding, the electron density in the π electron cloud of W96 was modulated by progressive fluorination of the W96 indole side chain.
# The thermodynamics of the LmrR–Dau interaction was recently reported to be mostly entropy driven.[21] To investigate this point in more detail the temperature dependence of the LmrR–Dau interaction was studied by surface plasmon resonance (SPR) experiments at 10 and 25 °C. […]
# as §4, §5
# This protein, 4-oxalocrotonate tautomerase mutant Ala33Asp15 was a gift of J.-Y. van der Meer. Steady state responses after injection
# RibU = molecular target: RibU; set-up: method as in PMID 17289680; details: cited from earlier work
# [1] = 5MeW LmrR, 25 °C, derived from Kd
# [2] = 5FW LmrR, 25 °C, derived from Kd
# [3] = 5,6diFW LmrR, 25 °C, derived from Kd
# [4] = 5,6,7triFW LmrR, 25 °C, derived from Kd
# [5] = 4,5,6,7tetraFW LmrR, 25 °C, derived from Kd
# 5,6,7triFW-LmrR, sequence (A2RI36 entry or part of it): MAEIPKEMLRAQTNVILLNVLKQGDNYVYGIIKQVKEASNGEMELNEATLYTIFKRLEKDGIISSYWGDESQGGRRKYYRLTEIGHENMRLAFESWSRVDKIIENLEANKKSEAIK
# 5FW-LmrR, sequence (A2RI36 entry or part of it): as above
# 4,5,6,7tetraFW-LmrR, sequence (A2RI36 entry or part of it): as above
# LmrR labeled with 5MeW, sequence (A2RI36 entry or part of it): as above
# W-LmrR, sequence (A2RI36 entry or part of it): as above
# 5,6diFW-LmrR, sequence (A2RI36 entry or part of it): as above
smiles,measurement,setting,value
"Cc1cc2nc3c(=O)[nH]c(=O)nc-3n(C[C@H](O)[C@H](O)[C@H](O)CO)c2cc1C [RBF, riboflavin]",Free energy of ligand binding ΔG25 °C,LmrR labeled with 5MeW; [1],–36.6 kJ/mol
same,Kd,"LmrR labeled with 5MeW; 5MeW LmrR, 25 °C",380 ± 8 nM
same,Contribution of the π–π interactions as share of the total binding energy,W-LmrR; 25 °C,29%
same,Contribution of the π–π interactions to the total binding energy,W-LmrR; 25 °C,-10.5 kJ/mol
same,Kd,"W-LmrR; 25 °C, read-out: Binding affinity, Kd",460 ± 50 nM
same,Free energy of ligand binding ΔG25 °C,"W-LmrR; W LmrR, 25 °C, derived from Kd",–36.2 kJ/mol
same,Free energy of ligand binding ΔG25 °C,5FW-LmrR; [2],–34.3 kJ/mol
same,Kd,"5FW-LmrR; 5FW LmrR, 25 °C",970 ± 50 nM
same,Free energy of ligand binding ΔG25 °C,"5,6diFW-LmrR; [3]",–30.2 kJ/mol
same,Kd,"5,6diFW-LmrR; 25 °C",4990 ± 60 nM
same,Free energy of ligand binding ΔG25 °C,"5,6,7triFW-LmrR; [4]",–29.0 kJ/mol
same,Kd,"5,6,7triFW-LmrR; 25 °C",8370 ± 200 nM
same,Free energy of ligand binding ΔG25 °C,"4,5,6,7tetraFW-LmrR; [5]",–25.7 kJ/mol
same,"Fold decrease of LmrR binding affinity, W-LmrR to 4,5,6,7tetraFW-LmrR","4,5,6,7tetraFW-LmrR; 25 °C",70 fold
same,Kd,"4,5,6,7tetraFW-LmrR; 25 °C",33400 ± 16000 nM
same,Kd,RibU,~1 nM
"COc1cccc2c1C(=O)c1c(O)c3c(c(O)c1C2=O)C[C@@](O)(C(C)=O)C[C@@H]3O[C@H]1C[C@H](N)[C@H](O)[C@H](C)O1 [Dau, Daunomycin]",koff,LmrR labeled with 5MeW,0.2 ± 0.04 s⁻¹
same,"ΔΔG, ΔG10 °C – ΔG25 °C",LmrR labeled with 5MeW; 5MeW LmrR,–1.1 kJ/mol
same,Free energy of ligand binding ΔG10 °C,"LmrR labeled with 5MeW; 5MeW LmrR, 10 °C, derived from Kd",–37.8 kJ/mol
same,Free energy of ligand binding ΔG25 °C,LmrR labeled with 5MeW; [1],–36.7 kJ/mol
same,Kd,"LmrR labeled with 5MeW; 5MeW LmrR, 10 °C",104 ± 5 nM
same,Kd,"LmrR labeled with 5MeW; 5MeW LmrR, 25 °C",370 ± 30 nM
same,koff,W-LmrR,0.4 ± 0.07 s⁻¹
same,Contribution of the π–π interactions as share of the total binding energy,W-LmrR; 25 °C,13%
same,Contribution of the π–π interactions to the total binding energy,W-LmrR; 25 °C,-4.8 kJ/mol
same,Kd,"W-LmrR; Binding affinity, Kd, 10 °C",315 ± 40 nM
same,Kd,"W-LmrR; Binding affinity, Kd, 25 °C",450 ± 50 nM
same,"ΔΔG, ΔG10 °C – ΔG25 °C",W-LmrR; W LmrR,0.9 kJ/mol
same,Free energy of ligand binding ΔG10 °C,"W-LmrR; W LmrR, 10 °C, derived from Kd",–35.2 kJ/mol
same,Free energy of ligand binding ΔG25 °C,"W-LmrR; W LmrR, 25 °C, derived from Kd",–36.2 kJ/mol
same,koff,5FW-LmrR,0.6 ± 0.001 s⁻¹
same,"ΔΔG, ΔG10 °C – ΔG25 °C",5FW-LmrR; 5FW LmrR,0.9 kJ/mol
same,Free energy of ligand binding ΔG10 °C,"5FW-LmrR; 5FW LmrR, 10 °C, derived from Kd",–35.5 kJ/mol
same,Free energy of ligand binding ΔG25 °C,5FW-LmrR; [2],–36.4 kJ/mol
same,Kd,"5FW-LmrR; 5FW LmrR, 10 °C",280 ± 40 nM
same,Kd,"5FW-LmrR; 5FW LmrR, 25 °C",430 ± 80 nM
same,"ΔΔG, ΔG10 °C – ΔG25 °C","5,6diFW-LmrR; 5,6diFW LmrR",0.2 kJ/mol
same,Free energy of ligand binding ΔG10 °C,"5,6diFW-LmrR; 5,6diFW LmrR, 10 °C, derived from Kd",–33.9 kJ/mol
same,Free energy of ligand binding ΔG25 °C,"5,6diFW-LmrR; [3]",–34.1 kJ/mol
same,Kd,"5,6diFW-LmrR; 10 °C",560 ± 50 nM
same,Kd,"5,6diFW-LmrR; 25 °C",1050 ± 60 nM
same,koff,"5,6,7triFW-LmrR",0.8 ± 0.1 s⁻¹
same,"ΔΔG, ΔG10 °C – ΔG25 °C","5,6,7triFW-LmrR; 5,6,7triFW LmrR",–0.4 kJ/mol
same,Free energy of ligand binding ΔG10 °C,"5,6,7triFW-LmrR; 5,6,7triFW LmrR, 10 °C, derived from Kd",–33.7 kJ/mol
same,Free energy of ligand binding ΔG25 °C,"5,6,7triFW-LmrR; [4]",–33.3 kJ/mol
same,Kd,"5,6,7triFW-LmrR; 10 °C",590 ± 60 nM
same,Kd,"5,6,7triFW-LmrR; 25 °C",1440 ± 100 nM
same,koff,"4,5,6,7tetraFW-LmrR",1.5 ± 0.09 s⁻¹
same,"ΔΔG, ΔG10 °C – ΔG25 °C","4,5,6,7tetraFW-LmrR; 4,5,6,7tetraFW LmrR",0.3 kJ/mol
same,Free energy of ligand binding ΔG10 °C,"4,5,6,7tetraFW-LmrR; 4,5,6,7tetraFW LmrR, 10 °C, derived from Kd",–31.3 kJ/mol
same,Free energy of ligand binding ΔG25 °C,"4,5,6,7tetraFW-LmrR; [5]",–31.6 kJ/mol
same,"Fold decrease of LmrR binding affinity, W-LmrR to 4,5,6,7tetraFW-LmrR","4,5,6,7tetraFW-LmrR; 25 °C",6 fold
same,Kd,"4,5,6,7tetraFW-LmrR; 10 °C",1680 ± 70 nM
same,Kd,"4,5,6,7tetraFW-LmrR; 25 °C",2880 ± 500 nM
